This assay concerns M. tuberculosis H37Rv growth inhibition, 7H9 media. In words: M. tuberculosis growth inhibition, HTS (AID 449762).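 On all read-outs here: bacterial growth assessed after seven days of incubation.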 The note with it: for IC90: measured here: IC90 growth inhibition.

Results filed as inconclusive are left out.

With `CCCn1c(CC)nc([N+](=O)[O-])c1S(=O)(=O)c1ccccc1`, the IC50 was 7.8 µM and the concentration for an effect of 90% (IC90) was 22.6 µM.

With `Cc1ccc(C2=NNC3(CCOC(C)(C)C3)S2)cc1` (configuration not stated), the half-maximal inhibitory concentration (IC50) is 11.1 µM and the IC90 was found to be 14.9 µM.

For `CC(C)(C)OC(=O)NNc1c2ccccc2nc2ccccc12`, the IC50 was 22.8 µM and the 90% effect concentration (IC90) was found to be 25.7 µM.

For `CC(=O)O[C@H]1C[C@@]2(C)[C@@H](C[C@@H](O)[C@H]3[C@@]4(C)CC[C@@H](O)[C@@H](C)[C@@H]4CC[C@@]32C)/C1=C(\CCC=C(C)C)C(=O)O`, the IC50 was 1.6 µM and the IC90 was 4.42 µM.

With `COc1ccc(N2CCN(C(=O)c3ccc(CNc4c(N5CCOCC5)c(=O)c4=O)cc3)CC2)cc1`, the IC50 is 2.42 µM and the IC90 stood at 5.17 µM.

As to `CNC(CC(=O)c1ccc([N+](=O)[O-])cc1)C(Cl)(Cl)Cl` (configuration not stated), the IC50 was 2.26 µM and the IC90 stood at 5.81 µM.

For the compound `COC(=O)c1c(NC(=O)C(=O)N2CCCC2)sc2c1CC(C)(C)OC2`, the IC50 is 9.46 µM and the IC90 turned out to be 27.7 µM.

For the compound `COC(=O)CC(=O)N1CCN(c2ccc(Cl)c(Cl)c2)CC1`, the IC50 was 20 µM and the IC90 came out at 55 µM.

Take `CCCCC(=O)/C=C/n1c(=S)oc2ccccc21`: the IC50 was 28.2 µM and the 90% effect concentration (IC90) was above 100 µM.

For the compound `CCN(CC)C(=S)SSC(=S)N(CC)CC`, the IC50 is 0.78 µM and the 90% effect concentration (IC90) came to 1.53 µM.

For the compound `Nc1[nH]n2c(=O)cc(-c3ccccc3)nc2c1N=Nc1ccc2c(c1)OCO2`, the IC50 was 23.4 µM and the IC90 was determined as 26.6 µM.

Turning to `CC(/C=N/n1c(C2CCCCC2)n[nH]c1=S)=C\c1ccccc1`, the IC50 is 48.7 µM and the IC90 worked out at 54.3 µM.

Consider `CC1CCc2c(C(=O)Nc3nccs3)csc2C1` (configuration not stated), for which the IC50 is 7.27 µM and the IC90 stood at 22.8 µM.

In the case of `COc1ccc(-c2cc(C3CCN(Cc4cccc(C(F)(F)F)c4)CC3)[nH]n2)cc1`, the concentration for half-maximal inhibition (IC50) was 10.6 µM and the IC90 came to 15.9 µM.

Turning to `O=C(CSc1ncnc2nc[nH]c12)c1ccc(Cl)cc1`, the IC50 is 12.1 µM and the IC90 was 13.9 µM.

`O=C(CN1CCCCC1)Nc1nnc(-c2ccc([N+](=O)[O-])cc2)s1`: the half-maximal inhibitory concentration (IC50) was 16.2 µM and the IC90 stood at 62.4 µM.

For `C/C(=N/Nc1ccnc2cc(Cl)ccc12)c1ccc(O)cc1`, the IC50 was 23.7 µM and the IC90 came out at 27.2 µM.

With `COc1ccc(C2CC(=O)C3=C(C2)NC(C)=C(C#N)C3c2ccc(N(C)C)cc2)cc1` (configuration not stated), the IC50 is 19.6 µM and the IC90 was determined as 33 µM.

For `CCc1ccc(NCc2ccc(OC)c(Cn3ccnc3)c2)cc1`, the IC50 is 21.5 µM and the 90% effect concentration (IC90) amounted to 23.9 µM.

With `CCOC(=O)CCCNC(=O)COC(=O)c1cc(Br)c(Br)s1`, the half-inhibitory concentration (IC50) was 9.86 µM and the 90% effect concentration (IC90) is above 100 µM.

Regarding `CCOc1ccc(NC(=O)c2sc3nc(C)nc(N4CCOCC4)c3c2C)cc1`, the IC50 is 35.6 µM and the 90% effect concentration (IC90) is 61.3 µM.

In the case of `COc1ccccc1N1CCN(c2ccc(-c3ccccc3)nn2)CC1`, the 50% inhibitory concentration (IC50) was 84.4 µM and the IC90 is above 100 µM.

Turning to `COc1ccc(C2=Nn3c(nnc3-c3ccccc3F)SC2)cc1OC1CCCC1`, the IC50 is 8.9 µM and the IC90 was determined as 19.6 µM.

As to `O=C(Nc1nc2ccccc2[nH]1)C12CC3CC(CC(C3)C1)C2`, the half-inhibitory concentration (IC50) is 10.3 µM and the IC90 amounted to 34.5 µM.

Turning to `O[C@@H](c1cc(C(F)(F)F)nc2c(C(F)(F)F)cccc12)[C@H]1CCCCN1`, the 50% inhibitory concentration (IC50) is 18.2 µM and the concentration for an effect of 90% (IC90) was 24.5 µM.

On to `COc1ccc(N/N=C(/N=Nc2nc(C)cc(=O)[nH]2)c2ccccc2)cc1`, for which the IC50 was 5.91 µM and the 90% effect concentration (IC90) amounted to 6.69 µM.

`O=C(Nc1nc2ccc(SC(F)F)cc2s1)c1ccc(NS(=O)(=O)c2ccc(F)c(F)c2)cc1`: the half-inhibitory concentration (IC50) was 16.5 µM and the IC90 worked out at 24.7 µM.

Take `Clc1cc(Cl)cc(Nc2ncn[nH]2)c1`: the IC50 was 24.1 µM and the IC90 was above 100 µM.

For `Cc1ccc(/C=C(\NC(=O)c2ccc(C)cc2)c2nc(=S)[nH][nH]2)cc1`, the IC50 was 39.5 µM and the concentration for an effect of 90% (IC90) turned out to be 48.9 µM.

`C[Se]C[C@@H](N)C(=O)O`: the concentration for half-maximal inhibition (IC50) was 51 µM and the 90% effect concentration (IC90) was 69.6 µM.

On to `CCCCCCCCn1sccc1=O`, for which the IC50 is 1.29 µM and the IC90 worked out at 2.12 µM.

With `Cc1ccccc1NC(=O)Cc1nc(COC(=O)/C=C/c2ccccc2)cs1`, the IC50 was 40.3 µM and the IC90 is 63 µM.

Take `Cc1nn(-c2nc3ccccc3[nH]2)c(N)c1-c1ccc(Cl)cc1`: the IC50 is 0.21 µM and the IC90 stood at 2.6 µM.

On to `CC(C)n1cnc2c(NCc3ccccc3)cc(Cc3ccc(F)cc3)cc21`, for which the half-maximal inhibitory concentration (IC50) is 26.9 µM and the IC90 turned out to be 36.5 µM.

Take `Cc1cc2c(ccc3c2no[n+]3[O-])nn1`: the IC50 is 11.6 µM and the IC90 worked out at 14.6 µM.

As for `Clc1ccc(-c2cc3ccccc3nc2N2CCCC2)cc1`, the IC50 was 69.2 µM and the IC90 is above 100 µM.

For the compound `O=C1C2C(c3ccccc3)(C(=O)N1c1ccc(Cl)cc1)C2(c1ccccc1)c1ccccc1` (configuration not stated), the concentration for half-maximal inhibition (IC50) is 11.5 µM and the IC90 stood at 12.4 µM.

For the compound `Cc1ccc(/C=C2\C(=O)Nc3ccccc32)o1`, the IC50 is 3.54 µM and the IC90 came out at 6.03 µM.

Consider `CC(C)(C)NC(=O)[C@@H]1C[C@@H]2CCCC[C@@H]2CN1C[C@@H](O)[C@H](Cc1ccccc1)NC(=O)[C@H](CC(N)=O)NC(=O)c1ccc2ccccc2n1`, for which the half-maximal inhibitory concentration (IC50) was 40.1 µM and the concentration for an effect of 90% (IC90) turned out to be 51.9 µM.

`Cc1ccc(C2CC(c3cccs3)=NN2C(=O)CCl)cc1` (configuration not stated): the IC50 is 0.39 µM and the IC90 amounted to 1.39 µM.

Turning to `c1ccc(Nc2nc(N3CCCCC3)nc(N3CCNCC3)n2)cc1`, the IC50 was 46.1 µM and the IC90 was found to be 68.9 µM.

As for `Cc1ccc(S(=O)(=O)NC(CC(C)C)C(=O)N2CCN(C/C=C/c3ccccc3)CC2)cc1` (configuration not stated), the concentration for half-maximal inhibition (IC50) was 46.8 µM and the 90% effect concentration (IC90) turned out to be 52.7 µM.

On to `CCCSC1=C(C#N)C(c2ccc(Cl)cc2Cl)CC(=O)N1` (configuration not stated), for which the IC90 is above 25 µM.

With `O=C(OCn1ncc(Br)c(Br)c1=O)c1ccc(F)cc1`, the IC50 is 1.17 µM and the IC90 was determined as 3.58 µM.

Turning to `CCOc1ccc(-c2nn3c(-c4ccccc4)nnc3s2)cc1`, the half-inhibitory concentration (IC50) was 29.2 µM and the 90% effect concentration (IC90) is above 100 µM.

Take `CCN1CCN(CCCNC(=O)c2ccc(/C=C3/Oc4ccccc4N(Cc4cccc(C)c4)C3=O)cc2)CC1`: the IC50 is 29.6 µM and the 90% effect concentration (IC90) is 42.2 µM.

As for `CSCCCNC(=S)N1CCN(c2ccc(C(C)=O)cc2)CC1`, the IC50 is 24.8 µM and the IC90 stood at 44.1 µM.

Take `CC(Oc1ccc2ccccc2c1)C(=O)NNC(=S)NC(=O)c1ccco1` (configuration not stated): the concentration for half-maximal inhibition (IC50) was 6.06 µM and the IC90 worked out at 45 µM.

As for `CN(CC(=O)Nc1ccc(OC(F)(F)F)cc1)C(=O)/C=C/c1cc2c(cc1[N+](=O)[O-])OCO2`, the IC50 was 30.2 µM and the IC90 came to 37.9 µM.

Consider `Cc1ccc2ccc3ccc(C)nc3c2n1`, for which the IC50 was 0.49 µM and the 90% effect concentration (IC90) was 1.31 µM.

With `C/C(=N\NC(=S)NCC(C)(C)C)c1cc(F)cc(F)c1O`, the IC50 is 1.22 µM and the IC90 worked out at 8.86 µM.

As for `CN1CCN(/N=C/c2c3ccccc3c(Cl)c3ccccc23)CC1`, the IC50 is 77.7 µM and the IC90 is above 100 µM.

Consider `CCN1CCN(c2oc(COc3ccc(-c4ccccc4)cc3)nc2C#N)CC1`, for which the half-inhibitory concentration (IC50) is 43.4 µM and the IC90 was 48.4 µM.

`CCCOP(=O)(OCCC)c1c([N+](=O)[O-])cc(C(F)(F)F)cc1[N+](=O)[O-]`: the IC50 is 3.88 µM and the 90% effect concentration (IC90) was 6.52 µM.

With `CCOC(=O)C(C)Oc1ccc(OCc2ccccc2)cc1` (configuration not stated), the IC50 is 4.2 µM and the 90% effect concentration (IC90) amounted to 10.9 µM.

Take `CN1C(C(=O)NCc2ccc(OC(F)(F)F)cc2)CC2Cn3c(nc4cc(Cl)c(Cl)cc43)C21` (configuration not stated): the half-inhibitory concentration (IC50) is 39.8 µM and the 90% effect concentration (IC90) was 55.6 µM.

On to `O=c1c(C=NCCN2CCNCC2)c(O)n(C2CCCCC2)c(=O)n1C1CCCCC1`, for which the IC50 was 21 µM and the IC90 was 28.5 µM.

As for `CCc1ccc(NC(=O)c2ccc(C3SCC(=O)N3CCc3ccccc3)cc2)cc1` (configuration not stated), the IC50 was 97.5 µM and the IC90 was above 100 µM.

As for `Cc1ccc(/C=C2\SC(N3CCCC3)=NC2=O)cc1`, the IC50 was 0.38 µM and the IC90 turned out to be 1.68 µM.

With `CC(C)CCC[C@@H](C)[C@H]1CC[C@H]2[C@@H]3C(=O)C=C4C[C@@H](O)CC[C@]4(C)[C@H]3CC[C@]12C`, the concentration for half-maximal inhibition (IC50) is 43.3 µM and the IC90 came to 47.8 µM.

Regarding `CN(C)c1ccc(CNc2nc(-c3ccccc3)nn2S(C)(=O)=O)cc1`, the IC50 is 12 µM and the 90% effect concentration (IC90) amounted to 13.8 µM.

`CCCCCCCCn1cnc2c(N)c(C)c(C)cc21`: the half-inhibitory concentration (IC50) was 37.4 µM and the IC90 turned out to be 60 µM.

For `C/C(=C1/C(=O)N(c2ccc([N+](=O)[O-])cc2)N=C1c1ccccc1)N(C)C`, the IC50 is 21.8 µM and the 90% effect concentration (IC90) was determined as 31.4 µM.

Turning to `CCOc1cc(NC(=O)CCl)c(OCC)cc1NC(C)=O`, the IC50 is below 0.2 µM and the 90% effect concentration (IC90) was found to be 5.99 µM.

As for `CC1=C(/C=C/C(C)=C/C=C/C(C)=C/C(=O)Nc2ccc(O)cc2)C(C)(C)CCC1`, the half-maximal inhibitory concentration (IC50) is 41.9 µM and the IC90 came to 59.8 µM.

On to `CNc1ccccc1C(=O)OC(C)C(=O)Nc1ccc(Cl)cn1` (configuration not stated), for which the IC50 is 28.2 µM and the concentration for an effect of 90% (IC90) worked out at 51.3 µM.

In the case of `Cc1c(C(=O)Oc2cccc3ccccc23)cnn1-c1ccccc1`, the IC50 is 23.7 µM and the concentration for an effect of 90% (IC90) is 26.9 µM.

In the case of `Cc1oc(C(=O)Nc2ccc(O)cc2)cc1COc1ccccc1`, the half-maximal inhibitory concentration (IC50) is 12.5 µM and the IC90 was 43.6 µM.

Turning to `C=C[C@]1(C)C[C@@H](OC(=O)CSCCN(CC)CC)[C@]2(C)C(C)CC[C@]3(CCC(=O)[C@H]32)[C@@H](C)[C@@H]1O` (some centres not stated), the concentration for half-maximal inhibition (IC50) is 4.03 µM and the concentration for an effect of 90% (IC90) was 7.7 µM.

As for `O=C(CCl)NCc1cc(-c2ccc(Cl)cc2)no1`, the IC50 is below 0.2 µM and the IC90 turned out to be 1.33 µM.

As to `Cc1ccc(-n2[nH]c(C)c(C=Nc3ccc(S(=O)(=O)Nc4nccs4)cc3)c2=O)c(C)c1`, the half-inhibitory concentration (IC50) was 5.73 µM and the IC90 is 17 µM.

The compound `CC(=O)CCSc1ncnc2sc(-c3ccccc3)cc12` had an IC90 above 100 µM.

These data come from PubChem BioAssay AID449762 (Southern Research Specialized Biocontainment Screening …, 2010).
